Target: human SGLT1 (Homo sapiens (Human), UniProt P13866)
Test: SGLT1 inhibitory activity: 14C-AMG uptake into CHO-K1 cell line stably expressing human SGLT1
Assay type: cell-based
Conditions: 14C-AMG uptake, CHO-K1 cells stably expressing human SGLT1
Outline: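 CHO-K1 cells stably expressing human SGLT1 were pre-incubated 20 min in Na(−) buffer (pH 7.4). Test compound in Na(+) buffer with BSA was added with ¹⁴C-AMG (8 kBq) plus unlabelled AMG (2 mM in the added solution) for 1 h at 37 °C.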

human SGLT1, sequence (P13866 whole entry): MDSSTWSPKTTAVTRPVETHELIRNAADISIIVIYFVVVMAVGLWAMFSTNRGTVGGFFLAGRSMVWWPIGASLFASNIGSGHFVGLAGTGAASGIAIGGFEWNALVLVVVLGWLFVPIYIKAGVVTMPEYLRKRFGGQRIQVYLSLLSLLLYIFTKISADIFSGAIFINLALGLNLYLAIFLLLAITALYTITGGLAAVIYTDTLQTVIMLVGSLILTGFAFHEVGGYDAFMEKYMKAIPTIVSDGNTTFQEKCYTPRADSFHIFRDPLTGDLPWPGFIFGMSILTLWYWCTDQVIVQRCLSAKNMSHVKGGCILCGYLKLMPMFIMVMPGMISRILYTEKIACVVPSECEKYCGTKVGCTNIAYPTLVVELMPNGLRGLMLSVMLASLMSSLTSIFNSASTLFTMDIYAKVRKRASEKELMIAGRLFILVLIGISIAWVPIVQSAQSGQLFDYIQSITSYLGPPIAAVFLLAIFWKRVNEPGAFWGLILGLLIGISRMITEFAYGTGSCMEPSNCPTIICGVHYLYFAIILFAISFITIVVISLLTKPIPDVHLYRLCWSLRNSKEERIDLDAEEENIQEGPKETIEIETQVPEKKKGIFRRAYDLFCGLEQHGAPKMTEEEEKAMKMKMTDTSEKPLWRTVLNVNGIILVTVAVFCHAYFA

Structure (SMILES)	IC50 [nM]
CCOCc1cccc(-c2cc(NC(=O)[C@H]3CNC(=O)C3)nn2-c2ccccc2)c1 [Example 285]	21
CC(C)COc1cccc(-c2cc(NC(=O)[C@@H]3CNC(=O)C3)nn2-c2ccccc2)c1 [Example 286]	30
CC(C)COc1cccc(-c2cc(NC(=O)[C@H]3CNC(=O)C3)nn2-c2ccccc2)c1 [Example 287]	12
CC(C)(C)COc1cccc(-c2cc(NC(=O)[C@@H]3CNC(=O)C3)nn2-c2ccccc2)c1 [Example 288]	11.5
CC(C)(C)COc1cccc(-c2cc(NC(=O)[C@H]3CNC(=O)C3)nn2-c2ccccc2)c1 [Example 289]	4.5
CC(C)(C)Oc1cccc(-c2cc(NC(=O)[C@@H]3CNC(=O)C3)nn2-c2ccccc2)c1 [Example 290]	5.5
CCC(C)(C)Oc1cccc(-c2cc(NC(=O)[C@@H]3CNC(=O)C3)nn2-c2ccccc2)c1 [Example 291]	5.1
CC(C)(C)CCOc1cccc(-c2cc(NC(=O)[C@@H]3CNC(=O)C3)nn2-c2ccccc2)c1 [Example 294]	24.5
CCCc1cccc(-c2cc(NC(=O)[C@@H]3CNC(=O)N3CC)nn2-c2ccccc2)c1 [Example 295]	29
CCCc1cccc(-c2cc(NC(=O)[C@@H]3CNC(=O)N3CCC)nn2-c2ccccc2)c1 [Example 297]	71
CC(C)OCc1cccc(-c2cc(NC(=O)[C@@H]3CNC(=O)C3)nn2-c2ccccc2)c1 [Example 299]	33
CCCOCc1cccc(-c2cc(NC(=O)[C@@H]3CNC(=O)C3)nn2-c2ccccc2)c1 [Example 300]	38
CC(C)Oc1cccc(-c2cc(NC(=O)[C@@H]3CNC(=O)C3)nn2-c2ccccc2)c1 [Example 301]	63
CCCc1cccc(-c2cc(NC(=O)C3CCS(=O)(=O)CC3)nn2-c2ccccc2)c1 [Example 302]	1.5
CCCc1cccc(-c2cc(NC(=O)[C@H]3CNC(=O)N3CC)nn2-c2ccccc2)c1 [Example 303]	4.7
CCCc1cccc(-c2cc(NC(=O)[C@H]3CNC(=O)N3CCC)nn2-c2ccccc2)c1 [Example 304]	10
O=C1NC[C@H](C(=O)Nc2cc(-c3cccc(COCC(F)(F)F)c3)n(-c3ccccc3)n2)O1 [Example 305]	29
CCCCc1cccc(-c2cc(NC(=O)[C@H]3CNC(=O)O3)nn2-c2ccccc2)c1 [Example 306]	13
CC(C)OCc1cccc(-c2cc(NC(=O)[C@H]3CNC(=O)C3)nn2-c2ccccc2)c1 [Example 311]	17.5
CCCOCc1cccc(-c2cc(NC(=O)[C@H]3CNC(=O)C3)nn2-c2ccccc2)c1 [Example 312]	22
CC(C)(C)OCc1cccc(-c2cc(NC(=O)[C@@H]3CNC(=O)C3)nn2-c2ccccc2)c1 [Example 313]	19.5

Structure (SMILES)	IC50 [nM]
CC(C)COCc1cccc(-c2cc(NC(=O)[C@@H]3CNC(=O)C3)nn2-c2ccccc2)c1 [Example 314]	15
CC(C)(C)COCc1cccc(-c2cc(NC(=O)[C@@H]3CNC(=O)C3)nn2-c2ccccc2)c1 [Example 315]	15.5
CCCCOc1cccc(-c2cc(NC(=O)[C@@H]3CNC(=O)C3)nn2-c2ccccc2)c1 [Example 316]	39
CCCc1cccc(-c2cc(NC(=O)C3CC[S+]([O-])CC3)nn2-c2ccccc2)c1 (stereo not shown) [Example 318]	3.2
CC(C)CCOc1cccc(-c2cc(NC(=O)[C@@H]3CNC(=O)C3)nn2-c2ccccc2)c1 [Example 319]	28
CC(C)Oc1cccc(-c2cc(NC(=O)[C@H]3CNC(=O)C3)nn2-c2ccccc2)c1 [Example 321]	22
CCCc1cccc(-c2cc(NC(=O)[C@@H]3CNC(=O)C3)nn2-c2cc(C)cc(C)c2)c1 [Example 322]	4.7
CCCc1cccc(-c2cc(NC(=O)[C@@H]3CNC(=O)C3)nn2-c2cccc(C)c2C)c1 [Example 323]	4.8
CCCc1cccc(-c2cc(NC(=O)[C@@H]3CNC(=O)C3)nn2-c2cc(C)ccc2C)c1 [Example 324]	2.2
CCCc1cccc(-c2cc(NC(=O)[C@@H]3CNC(=O)C3)nn2-c2c(C)cccc2C)c1 [Example 325]	47
CCCOC(C)(C)c1cccc(-c2cc(NC(=O)[C@@H]3CNC(=O)C3)nn2-c2ccccc2)c1 [Example 326]	15
CCCc1cccc(-c2cc(NC(=O)[C@H]3CNC(=O)N3C(C)C)nn2-c2ccccc2)c1 [Example 328]	29
CCC(CC)OCc1cccc(-c2cc(NC(=O)[C@@H]3CNC(=O)C3)nn2-c2ccccc2)c1 [Example 332]	22
C[C@@H](OCc1cccc(-c2cc(NC(=O)[C@@H]3CNC(=O)C3)nn2-c2ccccc2)c1)C(F)(F)F [Example 334]	6.3
C[C@H](OCc1cccc(-c2cc(NC(=O)[C@@H]3CNC(=O)C3)nn2-c2ccccc2)c1)C(F)(F)F [Example 335]	16
O=C1NC[C@H](C(=O)Nc2cc(-c3cccc(COCCC(F)(F)F)c3)n(-c3ccccc3)n2)O1 [Example 337]	32
CCCc1cccc(-c2cc(NC(=O)[C@@H]3CNC(=O)C3)nn2-c2cccc(OCc3ccccc3)c2)c1 [Example 340]	16
CCCc1cccc(-c2cc(NC(=O)[C@@H]3CNC(=O)C3)nn2-c2cccc(O)c2)c1 [Example 341]	60
CCCc1cccc(-c2cc(NC(=O)[C@@H]3CNC(=O)C3)nn2-c2cccc(OC)c2)c1 [Example 343]	7.2
CCCc1cccc(-c2cc(NC(=O)[C@@H]3CNC(=O)C3)nn2-c2cccc(OC(C)C)c2)c1 [Example 344]	3.35
CCCc1cccc(-c2cc(NC(=O)[C@@H]3CNC(=O)N3CCOC)nn2-c2ccccc2)c1 [Example 345]	7.9

Structure (SMILES)	IC50 [nM]
CCCc1cccc(-c2cc(NC(=O)[C@H]3CNC(=O)N3CCOC)nn2-c2ccccc2)c1 [Example 346]	2.7
O=C1NC[C@H](C(=O)Nc2cc(-c3cccc(COCC(F)(F)F)c3)n(-c3ccccc3)n2)N1 [Example 349]	72
CC[C@@H](C)OCc1cccc(-c2cc(NC(=O)[C@@H]3CNC(=O)C3)nn2-c2ccccc2)c1 [Example 350]	25
CC[C@H](C)OCc1cccc(-c2cc(NC(=O)[C@@H]3CNC(=O)C3)nn2-c2ccccc2)c1 [Example 351]	32
CC(C)(OCc1cccc(-c2cc(NC(=O)[C@@H]3CNC(=O)C3)nn2-c2ccccc2)c1)C(F)(F)F [Example 352]	14
CC(OCc1cccc(-c2cc(NC(=O)[C@@H]3CNC(=O)C3)nn2-c2ccccc2)c1)(C(F)(F)F)C(F)(F)F [Example 353]	16
O=C1NC[C@H](C(=O)Nc2cc(-c3cccc(COCCC(F)(F)F)c3)n(-c3ccccc3)n2)N1 [Example 354]	79
CC(C)(C)C(=O)c1cccc(-c2cc(NC(=O)[C@@H]3CNC(=O)C3)nn2-c2ccccc2)c1 [Example 356]	11
CCCc1cccc(-c2cc(NC(=O)[C@@H]3CNC(=O)C3)nn2-c2ccccc2CC)c1 [Example 358]	17
CCCc1cccc(-c2cc(NC(=O)[C@@H]3CNC(=O)C3)nn2-c2ccccc2C(C)C)c1 [Example 359]	39
CCCc1cccc(-c2cc(NC(=O)[C@@H]3CNC(=O)C3)nn2-c2ccc(OC)cc2)c1 [Example 362]	30
CCCc1cccc(-c2cc(NC(=O)[C@@H]3CNC(=O)C3)nn2-c2ccc(C(C)C)cc2)c1 [Example 363]	13
CC(OCc1cccc(-c2cc(NC(=O)[C@H]3CNC(=O)C3)nn2-c2ccccc2)c1)(C(F)(F)F)C(F)(F)F [Example 364]	8.3
C[C@@H](OCc1cccc(-c2cc(NC(=O)[C@H]3CNC(=O)N3)nn2-c2ccccc2)c1)C(F)(F)F [Example 365]	18
O=C1NC[C@H](C(=O)Nc2cc(-c3cccc(COC(C(F)(F)F)C(F)(F)F)c3)n(-c3ccccc3)n2)O1 [Example 366]	20
C[C@@H](OCc1cccc(-c2cc(NC(=O)[C@H]3CNC(=O)O3)nn2-c2ccccc2)c1)C(F)(F)F [Example 367]	11.5
CCCc1cccc(-c2cc(NC(=O)[C@@H]3COC(=O)N3)nn2-c2ccccc2)c1 [Example 368]	56
CCCc1cccc(-c2cc(NC(=O)[C@H]3COC(=O)N3)nn2-c2ccccc2)c1 [Example 369]	15
CCCc1cccc(-c2cc(NC(=O)[C@@H]3CNC(=O)C3)nn2-c2ccc(OCc3ccccc3)cc2)c1 [Example 370]	6.35
CCCc1cccc(-c2cc(NC(=O)[C@@H]3CNC(=O)C3)nn2-c2ccc(O)cc2)c1 [Example 371]	36
CCCc1cccc(-c2cc(NC(=O)[C@@H]3CNC(=O)C3)nn2-c2ccc(OCC)cc2)c1 [Example 372]	14

Same assay, conditions: CHO-K1, at 0.1 uM

Structure (SMILES)	inhibition at 0.1 µM [%]
CCN1C(=O)NC[C@H]1C(=O)Nc1cc(-c2cccc(OC(F)(F)F)c2)n(-c2ccccc2)n1 [Example 296]	48
CCCN1C(=O)NC[C@H]1C(=O)Nc1cc(-c2cccc(OC(F)(F)F)c2)n(-c2ccccc2)n1 [Example 298]	38
CCC1C(=O)NCC1C(=O)Nc1cc(-c2cccc(OC(F)(F)F)c2)n(-c2ccccc2)n1 (stereo not shown) [Example 310]	42
CCCc1cccc(-c2cc(NC(=O)C3CC[S+]([O-])CC3)nn2-c2ccccc2)c1 (stereo not shown) [Example 317]	40
CCCc1cccc(-c2cc(NC(=O)C3CNC(=O)C34CC4)nn2-c2ccccc2)c1 (stereo not shown) [Example 361]	33

Same assay, conditions: CHO-K1, at 0.3 uM

Structure (SMILES)	inhibition at 0.3 µM [%]
CCCc1cccc(-c2cc(NC(=O)[C@@H]3CNC(=O)N3C(C)C)nn2-c2ccccc2)c1 [Example 327]	15
CCCc1cccc(-c2cc(NC(=O)[C@@H]3CN(CC)C(=O)N3)nn2-c2ccccc2)c1 [Example 329]	35
CCCc1cccc(-c2cc(NC(=O)[C@H]3CN(CC)C(=O)N3)nn2-c2ccccc2)c1 [Example 330]	11
CCCc1cccc(-c2cc(NC(=O)[C@@H]3CNC(=O)N3CC(=O)O)nn2-c2ccccc2)c1 [Example 347]	11
CCCc1cccc(-c2cc(NC(=O)[C@H]3CNC(=O)N3CC(=O)O)nn2-c2ccccc2)c1 [Example 348]	26

Source: patent publication US8846746B2, “Pyrazole compound and pharmaceutical use thereof” (Japan Tobacco Inc., priority 2011, dated 2014)
